# In PubChem BioAssay AID1963854 (Molecular Pharmacology Branch, DTP, NCI, 2024):
# pIC50: −log10 of the molar value.
# Test system: 186277-243-T-J2-PDC complex spheroid viability
# Assay: Anticancer human tumor 186277-243-T-J2-PDC patient-derived colon adenocarcinoma cell line growth inhibition [POLQ]
# Conditions: for pIC50: curve of first compound; for viability, T/C: stronger effect = lower value
# Procedure, shortened: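 Complex spheroid viability model combining PDC tumour cells with endothelial (HUVEC) and MSC stromal cells. Novobiocin, ART-558 or RP6685 were tested singly and in combination with standard and investigational anticancer drugs. Each was titrated in half-log steps from near clinical Cmax, or from 10 microM where Cmax was unknown.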
# [1] = second compound 0.0316 µM, first compound 0.0316 µM
# [2] = second compound 0.0316 µM, first compound 0.1 µM
# [3] = second compound 0.0316 µM, first compound 0.316 µM
# [4] = second compound 0.0316 µM, first compound 1 µM
# [5] = second compound 0.0316 µM, first compound 3.16 µM
# [6] = second compound 0.0316 µM, first compound 10 µM
# [7] = second compound 0.1 µM, first compound 0.0316 µM
# [8] = second compound 0.1 µM, first compound 0.1 µM
# [9] = second compound 0.1 µM, first compound 0.316 µM
# [10] = second compound 0.1 µM, first compound 1 µM
# [11] = second compound 0.1 µM, first compound 3.16 µM
# [12] = second compound 0.1 µM, first compound 10 µM
# [13] = second compound 0.316 µM, first compound 0.0316 µM
# [14] = second compound 0.316 µM, first compound 0.1 µM
# [15] = second compound 0.316 µM, first compound 0.316 µM
# [16] = second compound 0.316 µM, first compound 1 µM
# [17] = second compound 0.316 µM, first compound 3.16 µM
# [18] = second compound 0.316 µM, first compound 10 µM
# [19] = second compound 1 µM, first compound 0.0316 µM
# [20] = second compound 1 µM, first compound 0.1 µM
# [21] = second compound 1 µM, first compound 0.316 µM
# [22] = second compound 1 µM, first compound 1 µM
# [23] = second compound 1 µM, first compound 3.16 µM
# [24] = second compound 1 µM, first compound 10 µM
# [25] = second compound 3.16 µM, first compound 0.0316 µM
# [26] = second compound 3.16 µM, first compound 0.1 µM
# [27] = second compound 3.16 µM, first compound 0.316 µM
# [28] = second compound 3.16 µM, first compound 1 µM
# [29] = second compound 3.16 µM, first compound 3.16 µM
# [30] = second compound 3.16 µM, first compound 10 µM
# [31] = second compound 10 µM, first compound 0.0316 µM
# [32] = second compound 10 µM, first compound 0.1 µM
# [33] = second compound 10 µM, first compound 0.316 µM
# [34] = second compound 10 µM, first compound 1 µM
# [35] = second compound 10 µM, first compound 3.16 µM
# [36] = second compound 10 µM, first compound 10 µM
# 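Further: spheroids exposed to compounds for seven days.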
# 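Wherever viability, T/C is given: 100% = DMSO vehicle control viability.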
smiles,measurement,setting,value
COc1cccc2c1C(=O)c1c(O)c3c(c(O)c1C2=O)CC(O)(C(=O)CO)CC3OC1CC(N)C(O)C(C)O1 (stereo unspecified) + Cc1cccc(N(C)C(=O)C2C(O)CCN2c2nc(C)cc(C(F)(F)F)c2C#N)c1,pIC50,second compound 0.0316 µM,6.97
same,pIC50,second compound 0.1 µM,6.94
same,pIC50,second compound 0.316 µM,6.94
same,pIC50,second compound 1 µM,6.92
same,pIC50,second compound 3.16 µM,6.92
same,pIC50,second compound 10 µM,7.12
same,"viability, T/C",[1],104%
same,"viability, T/C",[2],52.1%
same,"viability, T/C",[3],10.2%
same,"viability, T/C",[4],0.23%
same,"viability, T/C",[5],0.15%
same,"viability, T/C",[6],0.39%
same,"viability, T/C",[7],107%
same,"viability, T/C",[8],55.6%
same,"viability, T/C",[9],11.1%
same,"viability, T/C",[10],0.24%
same,"viability, T/C",[11],0.11%
same,"viability, T/C",[12],0.45%
same,"viability, T/C",[13],96.9%
same,"viability, T/C",[14],55.2%
same,"viability, T/C",[15],10.3%
same,"viability, T/C",[16],0.56%
same,"viability, T/C",[17],0.14%
same,"viability, T/C",[18],0.43%
same,"viability, T/C",[19],95.7%
same,"viability, T/C",[20],57%
same,"viability, T/C",[21],12%
same,"viability, T/C",[22],0.45%
same,"viability, T/C",[23],0.16%
same,"viability, T/C",[24],0.7%
same,"viability, T/C",[25],89.3%
same,"viability, T/C",[26],57.4%
same,"viability, T/C",[27],9.06%
same,"viability, T/C",[28],0.16%
same,"viability, T/C",[29],1.06%
same,"viability, T/C",[30],0.34%
same,"viability, T/C",[31],76.3%
same,"viability, T/C",[32],42.1%
same,"viability, T/C",[33],3.48%
same,"viability, T/C",[34],0.3%
same,"viability, T/C",[35],0.5%
same,"viability, T/C",[36],0.36%
CC(=O)O[C@H]1C(=O)[C@@]2(C)[C@H]([C@H](OC(=O)c3ccccc3)[C@]3(O)C[C@H](OC(=O)[C@H](O)[C@@H](NC(=O)c4ccccc4)c4ccccc4)C(C)=C1C3(C)C)[C@]1(OC(C)=O)CO[C@@H]1C[C@@H]2O + Nc1ccc(C#CCN(C(=O)Cc2ncc(C(F)(F)F)cc2C(F)(F)F)c2ccc(F)cc2)nn1,pIC50,second compound 0.0316 µM,> 8.02
same,pIC50,second compound 0.1 µM,> 8.02
same,pIC50,second compound 0.316 µM,> 8.02
same,pIC50,second compound 1 µM,> 8.02
same,pIC50,second compound 3.16 µM,> 8.02
same,pIC50,second compound 10 µM,> 8.02
same,"viability, T/C","second compound 0.0316 µM, first compound 0.00949 µM",42.4%
same,"viability, T/C","second compound 0.0316 µM, first compound 0.03 µM",12.5%
same,"viability, T/C","second compound 0.0316 µM, first compound 0.0949 µM",7.75%
same,"viability, T/C","second compound 0.0316 µM, first compound 0.3 µM",6.21%
same,"viability, T/C","second compound 0.0316 µM, first compound 0.949 µM",5.52%
same,"viability, T/C","second compound 0.0316 µM, first compound 3 µM",8.14%
same,"viability, T/C","second compound 0.1 µM, first compound 0.00949 µM",41.4%
same,"viability, T/C","second compound 0.1 µM, first compound 0.03 µM",10.8%
same,"viability, T/C","second compound 0.1 µM, first compound 0.0949 µM",7.09%
same,"viability, T/C","second compound 0.1 µM, first compound 0.3 µM",5.96%
same,"viability, T/C","second compound 0.1 µM, first compound 0.949 µM",6.1%
same,"viability, T/C","second compound 0.1 µM, first compound 3 µM",5.64%
same,"viability, T/C","second compound 0.316 µM, first compound 0.00949 µM",41.7%
same,"viability, T/C","second compound 0.316 µM, first compound 0.03 µM",11.7%
same,"viability, T/C","second compound 0.316 µM, first compound 0.0949 µM",7.17%
same,"viability, T/C","second compound 0.316 µM, first compound 0.3 µM",6.38%
same,"viability, T/C","second compound 0.316 µM, first compound 0.949 µM",5.86%
same,"viability, T/C","second compound 0.316 µM, first compound 3 µM",6.59%
same,"viability, T/C","second compound 1 µM, first compound 0.00949 µM",36.1%
same,"viability, T/C","second compound 1 µM, first compound 0.03 µM",13.4%
same,"viability, T/C","second compound 1 µM, first compound 0.0949 µM",6.63%
same,"viability, T/C","second compound 1 µM, first compound 0.3 µM",5.56%
same,"viability, T/C","second compound 1 µM, first compound 0.949 µM",6.34%
same,"viability, T/C","second compound 1 µM, first compound 3 µM",5.24%
same,"viability, T/C","second compound 3.16 µM, first compound 0.00949 µM",28.4%
same,"viability, T/C","second compound 3.16 µM, first compound 0.03 µM",10.8%
same,"viability, T/C","second compound 3.16 µM, first compound 0.0949 µM",7.02%
same,"viability, T/C","second compound 3.16 µM, first compound 0.3 µM",6.36%
same,"viability, T/C","second compound 3.16 µM, first compound 0.949 µM",6.4%
same,"viability, T/C","second compound 3.16 µM, first compound 3 µM",4.96%
same,"viability, T/C","second compound 10 µM, first compound 0.00949 µM",21.8%
same,"viability, T/C","second compound 10 µM, first compound 0.03 µM",8.01%
same,"viability, T/C","second compound 10 µM, first compound 0.0949 µM",6.35%
same,"viability, T/C","second compound 10 µM, first compound 0.3 µM",5.6%
same,"viability, T/C","second compound 10 µM, first compound 0.949 µM",7.72%
same,"viability, T/C","second compound 10 µM, first compound 3 µM",5.68%
CCCS(=O)(=O)Nc1ccc(F)c(C(=O)c2c[nH]c3ncc(-c4ccc(Cl)cc4)cc23)c1F + COC1C(OC(N)=O)C(O)C(Oc2ccc3c(O)c(NC(=O)c4ccc(O)c(CC=C(C)C)c4)c(=O)oc3c2C)OC1(C)C,pIC50,second compound 0.0316 µM,5.09
same,pIC50,second compound 0.1 µM,5.11
same,pIC50,second compound 0.316 µM,< 5.00
same,pIC50,second compound 1 µM,5.11
same,pIC50,second compound 3.16 µM,5.04
same,pIC50,second compound 10 µM,< 5.00
same,"viability, T/C",[1],95%
same,"viability, T/C",[2],90%
same,"viability, T/C",[3],86.5%
same,"viability, T/C",[4],93.4%
same,"viability, T/C",[5],88.5%
same,"viability, T/C",[6],41.5%
same,"viability, T/C",[7],98.4%
same,"viability, T/C",[8],76.9%
same,"viability, T/C",[9],96.2%
same,"viability, T/C",[10],79.7%
same,"viability, T/C",[11],87.7%
same,"viability, T/C",[12],39.9%
same,"viability, T/C",[13],91.4%
same,"viability, T/C",[14],90.4%
same,"viability, T/C",[15],89.7%
same,"viability, T/C",[16],92.8%
same,"viability, T/C",[17],101%
same,"viability, T/C",[18],52%
same,"viability, T/C",[19],91.2%
same,"viability, T/C",[20],97.2%
same,"viability, T/C",[21],86.6%
same,"viability, T/C",[22],86.8%
same,"viability, T/C",[23],97.6%
same,"viability, T/C",[24],38.5%
same,"viability, T/C",[25],92.2%
same,"viability, T/C",[26],96.6%
same,"viability, T/C",[27],93.5%
same,"viability, T/C",[28],90.6%
same,"viability, T/C",[29],88%
same,"viability, T/C",[30],46.7%
same,"viability, T/C",[31],118%
same,"viability, T/C",[32],89.7%
same,"viability, T/C",[33],93.6%
same,"viability, T/C",[34],94%
same,"viability, T/C",[35],92%
same,"viability, T/C",[36],50.3%
